In patent US20060110332A1, “Agent for medicamentous treatment of acute and chronic pain” (Max-Delbruck-Centrum Fur Molekulare Medizin, priority 2002, published 2006):
“Also recorded” adds a separate entry of the source. Where two headings read alike, the source gives them in different places.

Legend:
living tissue = conditions: cited from earlier work
CaV3.2 = CaV3.2 (Homo sapiens, UniProt O95180); conditions: cited from earlier work
[1] = tested on: cutaneous mechanotransduction; assay: Skin-nerve preparation (saphenous nerve), mechanical sensitivity of the skin; set-up: species or system mice
Experimental: The use of the skin-nerve preparation, which the present invention is based on, allows for the electrophysiological analysis of the different neurofibre types which innervate the skin (Koltzenburg et al., 1997, see above). The saphenous nerve and the region of the skin that it innervates are prepared from freshly killed mice and are mounted in a bath of physiological buffer. After mechanical or electrical stimulation of the skin, the nerve signals can be received directly from the nerve. For determining the effective concentration, tests were carried out with different concentrations of mibefradil in the bath solution. The EC50 of mibefradil on cells is between 0.1 and 1 μM. […] The unspecific blockade at high concentrations may be due to the fact that mibefradil, at high concentrations, has a very unspecific effect on other ubiquitously expressed calcium channels. Such blocking is lost at lower concentrations. The blocking of some AM mechanoreceptors also at low concentrations of mibefradil could have two reasons. The first possibility is that AM mechanoreceptors, too, express CaV3.2. This, however, is not very likely based on the findings obtained by the in-situ hybridisation within the framework of the present invention. It may rather be assumed that a different isotype, i.e. CaV3.3 is expressed in AM mechanoreceptors. It was not possible to detect CaV3.3 in in-situ hybridisation experiments in spinal ganglia, but other groups reported the expression of this calcium channel in medium-size cells. […] To sum up, it is concluded that the calcium channel CaV3.2 in spinal ganglia specifically expresses in D-hair mechanoreceptors and is therefore indispensable for its function. The discovery that the voltage-dependent calcium channels are involved in the transduction of mechanical stimuli by nociceptive and non-nociceptive neurons is new. Due to their physiological properties together with their specific localisation on the site of the mechanotransduction in the periphery, the calcium channels are ideal targets for pain therapy, which the invention is based on.

L-type calcium channels = conditions: cited from earlier work
CaV3.1 = CaV3.1 (Rattus norvegicus, UniProt O54898); conditions: compared with CaV3.2; cited from earlier work
Sequence of CaV3.1 (O54898 whole entry): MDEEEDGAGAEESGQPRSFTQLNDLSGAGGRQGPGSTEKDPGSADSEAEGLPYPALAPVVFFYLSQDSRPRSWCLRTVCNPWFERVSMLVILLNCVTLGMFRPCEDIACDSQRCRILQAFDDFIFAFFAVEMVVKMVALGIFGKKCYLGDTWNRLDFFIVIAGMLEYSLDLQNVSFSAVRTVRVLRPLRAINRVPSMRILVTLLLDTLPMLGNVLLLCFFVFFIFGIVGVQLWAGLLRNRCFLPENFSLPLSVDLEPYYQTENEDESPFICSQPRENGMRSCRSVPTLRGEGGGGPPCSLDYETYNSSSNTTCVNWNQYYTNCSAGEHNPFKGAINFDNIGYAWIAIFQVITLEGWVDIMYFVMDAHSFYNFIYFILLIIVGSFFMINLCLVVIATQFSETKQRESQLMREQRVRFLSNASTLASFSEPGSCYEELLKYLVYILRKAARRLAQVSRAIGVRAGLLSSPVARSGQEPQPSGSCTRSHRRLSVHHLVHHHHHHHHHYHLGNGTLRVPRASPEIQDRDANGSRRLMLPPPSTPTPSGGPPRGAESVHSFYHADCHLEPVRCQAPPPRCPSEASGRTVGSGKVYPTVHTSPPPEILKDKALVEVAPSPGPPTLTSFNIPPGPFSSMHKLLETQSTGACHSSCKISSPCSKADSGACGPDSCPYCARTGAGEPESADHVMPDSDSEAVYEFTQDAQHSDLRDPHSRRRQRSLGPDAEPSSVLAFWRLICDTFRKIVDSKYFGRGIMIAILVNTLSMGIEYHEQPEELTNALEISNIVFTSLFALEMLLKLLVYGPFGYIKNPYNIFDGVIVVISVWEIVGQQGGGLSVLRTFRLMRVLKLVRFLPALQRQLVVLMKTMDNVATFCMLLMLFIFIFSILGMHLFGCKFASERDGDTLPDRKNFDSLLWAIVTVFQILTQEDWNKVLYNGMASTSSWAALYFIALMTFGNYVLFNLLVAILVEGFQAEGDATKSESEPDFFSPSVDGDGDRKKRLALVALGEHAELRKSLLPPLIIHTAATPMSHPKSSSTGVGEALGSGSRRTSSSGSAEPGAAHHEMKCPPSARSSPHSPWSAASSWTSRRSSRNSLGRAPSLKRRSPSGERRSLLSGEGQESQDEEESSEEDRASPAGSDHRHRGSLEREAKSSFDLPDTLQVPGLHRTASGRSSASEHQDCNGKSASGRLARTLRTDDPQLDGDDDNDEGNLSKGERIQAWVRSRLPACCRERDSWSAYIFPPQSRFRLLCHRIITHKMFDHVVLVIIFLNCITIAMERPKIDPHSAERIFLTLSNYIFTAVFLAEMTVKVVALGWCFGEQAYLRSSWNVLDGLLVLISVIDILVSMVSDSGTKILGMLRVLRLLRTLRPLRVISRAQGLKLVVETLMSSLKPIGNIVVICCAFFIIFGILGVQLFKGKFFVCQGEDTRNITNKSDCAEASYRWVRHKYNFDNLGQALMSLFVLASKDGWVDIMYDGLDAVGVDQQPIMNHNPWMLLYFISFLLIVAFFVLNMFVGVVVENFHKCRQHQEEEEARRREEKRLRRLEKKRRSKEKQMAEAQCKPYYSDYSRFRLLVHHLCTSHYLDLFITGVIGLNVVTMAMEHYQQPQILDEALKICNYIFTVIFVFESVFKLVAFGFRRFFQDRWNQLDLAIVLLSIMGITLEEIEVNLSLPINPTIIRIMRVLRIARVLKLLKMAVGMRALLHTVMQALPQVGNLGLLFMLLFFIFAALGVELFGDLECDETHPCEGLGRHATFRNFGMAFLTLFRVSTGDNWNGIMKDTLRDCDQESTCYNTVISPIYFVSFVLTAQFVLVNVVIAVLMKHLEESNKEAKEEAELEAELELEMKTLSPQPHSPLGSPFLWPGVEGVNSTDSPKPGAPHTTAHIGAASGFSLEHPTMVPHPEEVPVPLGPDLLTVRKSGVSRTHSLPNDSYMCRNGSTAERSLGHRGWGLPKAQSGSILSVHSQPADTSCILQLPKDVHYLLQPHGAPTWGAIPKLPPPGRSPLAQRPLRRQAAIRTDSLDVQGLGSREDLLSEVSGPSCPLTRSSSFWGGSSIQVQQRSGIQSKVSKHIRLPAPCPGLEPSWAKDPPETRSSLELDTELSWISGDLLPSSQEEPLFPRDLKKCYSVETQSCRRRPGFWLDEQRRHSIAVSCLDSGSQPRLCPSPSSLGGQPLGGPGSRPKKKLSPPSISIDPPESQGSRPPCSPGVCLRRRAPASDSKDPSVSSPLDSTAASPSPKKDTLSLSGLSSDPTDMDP

CaV3.3 = conditions: compared with CaV3.2, cited from earlier work
AM mechanoreceptors = assay: Skin-nerve preparation (saphenous nerve), AM mechanoreceptors; set-up: species or system mice; conditions: 3 μM mibefradil in the bath solution
Experimental: (§1) The use of the skin-nerve preparation, which the present invention is based on, allows for the electrophysiological analysis of the different neurofibre types which innervate the skin (Koltzenburg et al., 1997, see above). The saphenous nerve and the region of the skin that it innervates are prepared from freshly killed mice and are mounted in a bath of physiological buffer. After mechanical or electrical stimulation of the skin, the nerve signals can be received directly from the nerve. For determining the effective concentration, tests were carried out with different concentrations of mibefradil in the bath solution. The EC50 of mibefradil on cells is between 0.1 and 1 μM. […] The unspecific blockade at high concentrations may be due to the fact that mibefradil, at high concentrations, has a very unspecific effect on other ubiquitously expressed calcium channels. Such blocking is lost at lower concentrations. The blocking of some AM mechanoreceptors also at low concentrations of mibefradil could have two reasons. The first possibility is that AM mechanoreceptors, too, express CaV3.2. This, however, is not very likely based on the findings obtained by the in-situ hybridisation within the framework of the present invention. It may rather be assumed that a different isotype, i.e. CaV3.3 is expressed in AM mechanoreceptors. […]

D-hair mechanoreceptors = assay: Skin-nerve preparation (saphenous nerve), D-hair mechanoreceptors; set-up: species or system mice; conditions: 3 μM mibefradil in the bath solution
Experimental: as §1

[2] = reason for removal from the market; cited from earlier work
T-type calcium channels = conditions: cited from earlier work

Sequence of CaV3.2 (O95180 whole entry): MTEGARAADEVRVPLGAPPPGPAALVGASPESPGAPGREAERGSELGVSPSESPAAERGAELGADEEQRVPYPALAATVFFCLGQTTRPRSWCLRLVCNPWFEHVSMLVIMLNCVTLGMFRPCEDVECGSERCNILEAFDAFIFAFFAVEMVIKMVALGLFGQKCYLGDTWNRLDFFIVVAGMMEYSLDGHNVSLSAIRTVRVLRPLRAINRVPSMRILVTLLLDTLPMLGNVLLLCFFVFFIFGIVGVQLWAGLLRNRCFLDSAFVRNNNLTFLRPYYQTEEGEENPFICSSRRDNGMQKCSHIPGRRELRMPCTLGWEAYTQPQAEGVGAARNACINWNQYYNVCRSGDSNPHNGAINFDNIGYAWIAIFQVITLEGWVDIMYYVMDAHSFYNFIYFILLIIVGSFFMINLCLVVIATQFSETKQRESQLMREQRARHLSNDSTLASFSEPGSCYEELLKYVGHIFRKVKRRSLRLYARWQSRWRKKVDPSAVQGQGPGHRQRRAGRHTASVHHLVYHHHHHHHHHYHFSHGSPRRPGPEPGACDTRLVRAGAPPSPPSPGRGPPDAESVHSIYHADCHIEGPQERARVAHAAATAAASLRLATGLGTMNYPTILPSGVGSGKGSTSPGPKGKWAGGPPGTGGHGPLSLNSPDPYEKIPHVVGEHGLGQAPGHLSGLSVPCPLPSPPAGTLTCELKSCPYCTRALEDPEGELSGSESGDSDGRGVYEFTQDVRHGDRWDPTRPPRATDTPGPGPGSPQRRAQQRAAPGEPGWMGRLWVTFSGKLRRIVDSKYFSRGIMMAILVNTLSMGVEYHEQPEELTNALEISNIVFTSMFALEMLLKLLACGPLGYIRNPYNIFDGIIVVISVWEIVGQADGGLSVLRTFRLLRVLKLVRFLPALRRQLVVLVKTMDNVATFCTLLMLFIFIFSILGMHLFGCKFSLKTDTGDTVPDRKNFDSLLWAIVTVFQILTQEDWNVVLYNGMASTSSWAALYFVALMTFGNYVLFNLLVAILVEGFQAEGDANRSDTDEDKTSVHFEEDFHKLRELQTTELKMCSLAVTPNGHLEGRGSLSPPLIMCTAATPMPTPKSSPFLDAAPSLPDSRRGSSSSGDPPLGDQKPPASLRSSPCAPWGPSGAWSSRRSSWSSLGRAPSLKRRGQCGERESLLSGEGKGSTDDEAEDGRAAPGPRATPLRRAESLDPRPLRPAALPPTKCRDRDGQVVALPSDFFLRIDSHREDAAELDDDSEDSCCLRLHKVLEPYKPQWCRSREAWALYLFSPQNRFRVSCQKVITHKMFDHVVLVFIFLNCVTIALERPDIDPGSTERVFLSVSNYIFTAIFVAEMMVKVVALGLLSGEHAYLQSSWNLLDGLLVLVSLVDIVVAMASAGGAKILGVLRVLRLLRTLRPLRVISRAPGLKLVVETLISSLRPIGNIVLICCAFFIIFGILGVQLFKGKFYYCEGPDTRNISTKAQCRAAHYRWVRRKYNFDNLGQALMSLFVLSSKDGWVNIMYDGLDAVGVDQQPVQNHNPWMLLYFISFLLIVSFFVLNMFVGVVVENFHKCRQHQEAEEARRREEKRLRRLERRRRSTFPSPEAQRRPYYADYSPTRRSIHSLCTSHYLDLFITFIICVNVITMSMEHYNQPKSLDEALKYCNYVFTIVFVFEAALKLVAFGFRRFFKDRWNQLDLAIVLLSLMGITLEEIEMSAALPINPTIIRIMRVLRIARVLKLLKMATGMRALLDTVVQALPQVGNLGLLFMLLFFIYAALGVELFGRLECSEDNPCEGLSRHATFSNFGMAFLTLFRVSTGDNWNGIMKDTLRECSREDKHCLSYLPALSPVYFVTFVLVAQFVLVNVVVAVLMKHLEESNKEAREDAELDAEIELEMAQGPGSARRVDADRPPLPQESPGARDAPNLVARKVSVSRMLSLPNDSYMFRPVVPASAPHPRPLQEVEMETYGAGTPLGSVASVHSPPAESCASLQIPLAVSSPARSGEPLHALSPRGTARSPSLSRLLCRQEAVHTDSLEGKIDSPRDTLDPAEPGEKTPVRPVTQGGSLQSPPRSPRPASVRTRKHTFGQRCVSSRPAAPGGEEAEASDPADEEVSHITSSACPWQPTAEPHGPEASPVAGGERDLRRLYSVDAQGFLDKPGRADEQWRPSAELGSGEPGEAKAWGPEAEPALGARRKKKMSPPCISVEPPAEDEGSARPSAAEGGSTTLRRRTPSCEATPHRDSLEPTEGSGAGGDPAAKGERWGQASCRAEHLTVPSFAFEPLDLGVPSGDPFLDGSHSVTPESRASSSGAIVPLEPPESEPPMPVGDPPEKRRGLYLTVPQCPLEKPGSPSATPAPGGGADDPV

| Structure (SMILES) | cytotoxicity (living tissue) | EC50 on CaV3.2 relative to the other isotypes (CaV3.2; CaV3.2 versus other T-type isotypes) [times] | EC50 (CaV3.2; read-out: EC50 on CaV3.2) [µM] | blocking of mechanotransduction ([1]; higher concentrations of mibefradil) | inhibition of cutaneous mechanotransduction ([1]; low concentrations (25 μM or less)) | blocking of the mechanical sensitivity ([1]; more than 25 μM mibefradil in the bath solution) | concentration blocking L-type relative to that necessary for T-type blocking (L-type calcium channels) | effect on T-type isotype CaV3.1 (CaV3.1) | effect / semi-effective concentration on CaV3.3 (CaV3.3) | effect / semi-effective concentration on CaV3.3 (CaV3.3; listed as Mibefradil) | inhibition of AM mechanoreceptors (AM mechanoreceptors) | inhibition of D-hair mechanoreceptors (D-hair mechanoreceptors) | interaction with other medicaments [2] | selectivity for T-type calcium channels (T-type calcium channels) |
| --- | --- | --- | --- | --- | --- | --- | --- | --- | --- | --- | --- | --- | --- | --- |
| [Ni] [nickel] | cytotoxic | 70 | ~10 | – | – | – | – | – | – | – | – | – | – | – |
| COCC(=O)O[C@]1(CCN(C)CCCc2nc3ccccc3[nH]2)CCc2cc(F)ccc2[C@@H]1C(C)C [mibefradil] | – | – | – | complex blocking of other mechanoreceptors; also recorded: blocks not only the D-hair mechanotransduction but also the entire mechanotransduction | virtually inhibits the entire cutaneous mechanotransduction | almost complete and unspecific blocking of the mechanical sensitivity | about 10 fold | almost identical effect | almost identical | almost identical effect | in part, also AM mechanoreceptors are specifically inhibited | specifically inhibited | severe interaction with other medicaments | relatively high selectivity for T-type calcium channels |
